Here are results for nine molecules from article PMC8002983, “Mammalian Arginase Inhibitory Activity of Methanolic Extracts and Isolated Compounds from Cyperus Species” (Molecules, 2021).

SMILES strings stand for the structures.

One assay relates to aortic rings from adjuvant induced-arthritis rats. Kind of assay: ex vivo acetylcholine-induced relaxation in isolated aortic rings from arthritic rats. Further details: species or system rat. The note with it: day 33 post-immunization, phenylephrine 10^−6 mol/L preconstriction, nor-NOHA 10^−4 mol/L, extract 2.6 10^−3 mg/mL. The protocol: This part of the experiment was performed on 15 male Lewis rats (6 weeks old), purchased from JanvierLabs (Le Genest Saint Isle, France). The experimental procedures were approved by the local ethics committee for animal experimentation No. 2015/001-CD/5PR of Franche-Comté University (Besançon, France) and complied with the “Animal Research: Reporting In Vivo Experiments” (ARRIVE) guidelines.
Arthritis was induced by a single intradermal injection to the tail of 120 μL of 10 mg·ml^−1 heat-killed Mycobacterium butyricum suspended in Freund’s incomplete adjuvant, as described previously. Non-arthritic age-matched rats were used as controls and received saline at the base of the tail.
At 33 days post-immunization, corresponding to the acute phase of arthritis, the rats were anesthetized using sodium pentobarbital 60 mg/kg (Ceva Santé Animale, France). The descending thoracic aorta was excised and carefully cleaned for vascular study as previously described. […] To assess the effect of arginase inhibitors, experiments were repeated in the presence of nor-NOHA (10^−4 M) and C. thunbergii extract (at EC50 obtained by in vitro test), respectively.
As to `N=C(NO)NCC[C@H](N)C(=O)O` [nor-NOHA, Nω-hydroxy-nor-L-arginine], the “effect on depressed Ach-induced endothelium-dependent relaxation (endothelial dysfunction)” value is “relaxation was higher”.

Another assay deals with T1, purified liver bovine arginase (b-ARGI) (Bos taurus, UniProt Q2KJ64).
T1 construct: purified liver bovine arginase 1, which was purchased from MP Biomedicals; purchased MP Biomedicals (Illkirch-Graffenstaden, France); host or cells: bovine liver (tissue-purified)
T1 sequence (Q2KJ64 1-322): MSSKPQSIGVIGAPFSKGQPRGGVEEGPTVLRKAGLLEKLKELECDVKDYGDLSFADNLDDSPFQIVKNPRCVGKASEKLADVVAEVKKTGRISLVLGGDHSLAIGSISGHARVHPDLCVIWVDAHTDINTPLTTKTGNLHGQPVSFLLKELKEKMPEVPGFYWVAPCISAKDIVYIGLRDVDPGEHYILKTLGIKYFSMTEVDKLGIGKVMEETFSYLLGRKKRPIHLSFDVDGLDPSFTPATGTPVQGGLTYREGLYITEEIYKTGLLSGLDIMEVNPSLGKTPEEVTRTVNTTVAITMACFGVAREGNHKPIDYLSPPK
Assay: not given
More on the design: method as in PMID 27776374, PMID 28837342. To be noted: mammalian arginase; read-out: Arginase inhibition IC50 of natural inhibitor piceatannol; cited from earlier work.
For orientation: IC50 means the concentration at which inhibition is half-maximal. Consider `Oc1cc(O)cc(/C=C/c2ccc(O)c(O)c2)c1` [piceatannol], for which the half-maximal inhibitory concentration (IC50) is 12.6 µM.

The target of the next assay is T1, purified liver bovine arginase (b-ARGI). Description: in vitro arginase inhibitory assay (colorimetric urea detection). Type of assay: biochemical. The note with it: means ± SEM, three distinct experiments in triplicate, read-out: Arginase Inhibition, IC50. The protocol:
The amount of urea produced by the hydrolysis of L-arginine by arginase (purified liver bovine arginase (b-ARGI)) can be detected using a color reactant (α-isonitrosopropiophenone) followed by a colorimetric assay, as described below. In each well of a 96-well microplate, the solutions were added in the following order: (1) buffer containing Tris-HCl (50 mM, pH 7.5) and 0.1% of bovine serum albumin (TBSA buffer) (10 μL), with or without (control) arginase (0.025 U/μL); (2) Tris-HCl solution (50 mM, pH 7.5) containing 10 mM MnCl2 as a cofactor (30 μL); (3) a solution containing an inhibitor or its solvent (as a control) (10 μL); (4) a solution of L-arginine (pH 9.7, 0.05 M) (20 μL). The microplate was incubated for 60 min in a 37 °C water bath after covering with a plastic sealing film. The addition of 120 μL of H2SO4/H3PO4/H2O (1:3:7) quenched the reaction. The microplate was left on ice for 5 min. Thereafter, 10 μL of α-isonitrosopropiophenone (5% in absolute ethanol (EtOH)) was added, and the microplate was heated in an oven at 100 °C for 45 min, after covering with an aluminum sealing film. As the colored product is photosensitive, the microplate was kept in the dark until reading. After 5 min of centrifugation and cooling for another 10 min, the microplate was shaken for 2 min and the absorbance was read at 550 nm and 25 °C using a spectrophotometer (Synergy HT BioTeck). The level of arginase activity was expressed as relative to the “100% arginase activity”. The experiment was repeated three times with each microplate under similar experimental conditions (e.g., various inhibitor concentrations.)
The percentage of arginase inhibitory activity and IC50 values was evaluated as previously described. A stock solution (70 mM) was prepared in DMSO and stored at −26 °C for each compound. These stock solutions were extemporaneously and successively diluted in ultrapure H2O to afford the following concentrations: 7000, 2100, 700, 210, 70, 21, 7, 2.1, and 0.7 μM, corresponding to final concentrations in the wells of 1000, 300, 100, 30, 10, 3, 1, 0.3, 0.1 μM, respectively. For a first screening, compounds were tested at final concentrations of 10 and 100 μM. Each solution was incubated with arginase for 1 h, as described above. The percentage of arginase inhibition was calculated by conversion of the resulting absorbance (relative to the absorbance of controls with only solvent (“100% arginase activity”)) and plotted on a semilogarithmic scale. The IC50 values were estimated by nonlinear sigmoidal curve-fitting by using Prism (GraphPad Software, version 5.0.3).
Consider `O=C1/C(=C/c2ccc(O)c(O)c2)Oc2cc(O)cc(O)c21` [Compound 5, aureusidin], for which the IC50 was found to be 57.1 ± 2.3 µM.

In the case of `Oc1ccc(/C=C/c2cc(O)cc3c2[C@H](c2cc(O)cc(O)c2)[C@@H](c2ccc(O)c(O)c2)O3)cc1` (stereo in doubt) [Compound 4, trans-scirpusin A], the IC50 was found to be 17.6 ± 2.2 µM.

Regarding `O=c1cc(-c2ccc(O)c(O)c2)oc2cc(O)cc(O)c12` [Compound 7, luteolin], the IC50 was 60.6 ± 3.1 µM.

`COc1cc2c3c(cc(O)cc3c1)C(C)(C)c1c-2ccc(OC)c1O` [Compound 1, 4,6-dihydroxy-12-dimethyl-3,10-dimethoxybenzophenanthrene]: the IC50 was found to be 28.8 ± 2.5 µM.

Consider `Oc1ccc(/C=C/c2cc(O)cc(O)c2)cc1` [Compound 3, trans-resveratrol], for which the IC50 was determined as 105 ± 4.1 µM.

As for `Oc1cc(O)cc(-c2c(-c3ccc(O)c(O)c3)oc3cc4oc(-c5ccc(O)c(O)c5)c(-c5cc(O)cc(O)c5)c4c(/C=C/c4ccccc4)c23)c1` [Compound 6, trans-cyperusphenol A], the IC50 worked out at 19.4 ± 1.3 µM.

As to `COc1cc2c3c(c1)O[C@H](C)CC3(C)c1cc3oc(OC)ccc-3c1O2` (stereo partly drawn) [Compound 2, thunbergin B], the IC50 was determined as 74.1 ± 3.7 µM.
